Consider 3 molecules from patent US11369618B2, “Compounds, compositions and methods for prevention and/or treatment of cancer” (THE TRUSTEES OF THE UNIVERSITY OF PENNSYLVANIA, priority 2016, dated 2022).

“Also recorded” adds a separate entry of the source.

Experiment [1] deals with Mouse (B16) and human (WM46) melanoma cell lines. The experiment can be described thus: tumor formation in mice from melanoma cells pretreated in vitro. The experiment is classed as in vivo. On the procedure: (§1) FIG. 11A: Long-term melanin assay in which normal human melanocytes were transiently treated with progesterone (P4), or estrogen (E2). Subsets of these groups (Red) were treated with an additional transient pulse of P4 at Day 27. Error bars equal the standard deviation of the samples. FIG. 11B: Western blot of melanocyte differentiation markers after a transient, 4-day treatment with either vehicle or estrogen, followed by an 8 day withdraw period. FIG. 11C: Experimental timeline of estrogen or GPER agonist (G-1) pre-treatment of mouse and human melanoma cells, n=5 per group. FIG. 11D: Relative tumor weights of mouse and human melanomas pre-treated with estrogen, * denotes significance by the Mann-Whitney test. FIG. 11E: Relative tumor weights of mouse and human melanomas pre-treated with G-1, * denotes significance by the Mann-Whitney test.
Mouse (B16) and human (WM46) cell lines were pretreated with estrogen, G-1, or vehicle in vitro for one week then injected in equal numbers in to the left (vehicle-treated) or right (E2-treated) flank of mice, inducing tumor formation (N=5 mice per group) (FIG. 5). 14-16 days later, mice were imaged and tumors were harvested and weighed.
To test whether transient GPER signaling induces a persistent differentiation state in melanoma cells that affects subsequent tumor growth in vivo, melanoma cells were treated with estrogen, G-1, or vehicle in vitro, and subsequently injected equal numbers of treated cells into host mice (FIG. 11C).

In experiment [2] the test system is histone posttranslational modifications. The experiment can be described thus: mass spectrometry of histone posttranslational modifications in estrogen-treated melanocytes. It counts as cell-based, human. An excerpt: FIG. 16B: Western blot of p-RB, c-Myc, and H3K56ac in melanoma cells after treatment with G-1, HDACi, or in combination. FIG. 16C: Proliferation assay of B16F10 melanoma cells after treatment with G-1, HDACi, or in combination.
To begin to identify the epigenetic changes likely underlying stable melanocyte differentiation after GPER activation, mass spectrometry was used to obtain a global analysis of histone posttranslational modifications in estrogen-treated MC.

In experiment [3] the test system is mouse and human melanoma cell lines (B16F10, WM46, WM51, WM3702). Put plainly: proliferation assay of mouse and human melanoma cell lines in vitro. It counts as cell-based. Particulars: estrogen 25 nM E2, G-1 100 nM, vs delivery vehicle. An excerpt:
(§2) FIGS. 4A-4F illustrate the finding that GPER signaling slows proliferation and drives differentiation in mouse and human melanoma. FIG. 4A: 5 day proliferation assay of B16F10, WM46 (BRAF^V600E), WM51 (BRAF^V600E), and WM3702 (NRAS^Q61L) cells treated with estrogen (E2), * denotes significance by a two-tailed T-test, n=3 per group. FIG. 4B: 5 day melanin assay of B16F10, WM46 (BRAF^V600E), WM51 (BRAF^V600E), and WM3702 (NRAS^Q61L) cells treated with E2, * denotes significance by a two-tailed T-test, n=3 per group. FIG. 4C: 5 day proliferation assay of B16F10, WM46 (BRAF^V600E), WM51 (BRAF^V600E) and WM3702 (NRAS^Q61L) cells treated with GPER agonist (G-1), * denotes significance by a two-tailed T-test, n=3 per group. FIG. 4D: 5 day melanin assay of B16F10, WM46 (BRAF^V600E), WM51 (BRAF^V600E), and WM3702 (NRAS^Q61L) cells treated with G-1, * denotes significance by a two-tailed T-test, n=3 per group. FIG. 4E: 3 day proliferation assay of B16F10 cells treated with a dose response of G-1, * denotes significance One-way ANOVA with Tukey's multiple comparison test, n=5 per group. FIG. 4F: Western blot of B16F10 cells treated for 16 hours with a saturating dose response of G-1. […]
(§3) Tumor cell proliferation slowed in both mouse and human melanoma cells following treatment with estrogen or G-1, a specific GPER agonist. […] Cell proliferation and differentiation (melanin production) were measured.

Experiment [4] shares this test system. The experiment can be described thus: melanin assay (differentiation) of mouse and human melanoma cell lines in vitro. It counts as cell-based. Particulars: estrogen 25 nM E2, G-1 100 nM, vs delivery vehicle.
Text: as §2, §3

The test system of experiment [5] is normal human melanocytes. Put plainly: differentiation of normal human melanocytes after continuous or transient hormone exposure (melanin, RNAseq, Western blot). It counts as cell-based. The following applies: for melanocyte differentiation state (melanin pigment production) / melanin production after hormone withdrawal: normal human melanocytes; for melanocyte differentiation state (melanin pigment production): hormone or agonist exposure; for melanin production after hormone withdrawal: transient exposure then withdrawal. How it is done:
as §1
Normal human melanocytes received a pulse-treatment of estrogen—this consisted of 4 days of estrogen treatment followed by an 8 day withdraw.
To test whether pregnancy-associated hormones induce long-lasting changes in melanocyte differentiation that may affect their future susceptibility to transformation, primary human melanocytes were transiently exposed to estrogen or progesterone (FIGS. 11A-11E).
A subset of cells differentiated by transient exposure to estrogen was subsequently treated with progesterone.

In experiment [6] the test system is human melanocytes. Put plainly: pigment production and differentiation in human melanocytes treated with MSH or afamelanotide (FIG. 9). It counts as cell-based. An excerpt:
FIG. 9 is a set of bar graphs illustrating the finding that MSH (the endogenous equivalent of afamelanotide) and afamelanotide (also known as […] or NDP-α-MSH) increase pigment production (top) and differentiation (bottom) in human melanocytes.

Turning to `C[C@]12CC[C@@H]3c4ccc(O)cc4CC[C@H]3[C@@H]1CC[C@@H]2O` [estrogen, estradiol], the “inhibition of tumor growth in vivo” value in experiment [1] (cells pretreated in vitro for one week, injected into flank of mice, tumors weighed 14-16 days later) was “approximately 3 fold”. In experiment [1] (melanoma cells pretreated in vitro, equal numbers injected into mice), the “tumor growth / tumor size from pretreated cells” value is given as “formed significantly smaller tumors; also recorded: markedly reduced subsequent tumor size; also recorded: inhibits melanoma cell line growth in vivo”. For the same molecule, the H3K9ac mark result in experiment [2] is on record as “decreased”. Further, the “histone acetylation marks regulated by CBP/P300, including H3K122, H3K23, and H3K18” value in experiment [2] (3 independent biologic replicates) is recorded as “significant increases”. Moreover, the melanoma cell proliferation entry in experiment [3] is “slowed melanoma cell proliferation”. Also, the “differentiation (melanin production)” value in experiment [4] is “drove differentiation”. In experiment [5] (4 days of treatment followed by an 8 day withdraw, RNAseq), the “expression of aggressive melanoma markers such as premelanosome protein (PMEL)” value is reported as “decreased expression”. Moreover, the “expression of melanocyte differentiation markers (TYR, TRP1, MC1R, MLANA, DCT)” value in experiment [5] (4 days of treatment followed by an 8 day withdraw, RNAseq, Western blot) is listed as “maintained upregulated expression of all the major melanocyte differentiation markers; also recorded: stable increases in classic melanocyte differentiation antigens”. In experiment [5], the “melanocyte differentiation state (melanin pigment production)” value (“melanocyte differentiation state” for short) is reported as “increases melanocyte differentiation state; also recorded: increase the differentiation state of human melanocytes” and the “melanin production after hormone withdrawal” value was “stably produced more melanin”. Further, the “melanocyte differentiation state” value in experiment [5] (listed as Estrogen) is given as “make more pigment; also recorded: increased melanin production”.

For the molecule `CC(=O)[C@H]1CC[C@H]2[C@@H]3CCC4=CC(=O)CC[C@]4(C)[C@H]3CC[C@]12C` [progesterone], in experiment [5], the “melanocyte differentiation state” value is reported as “had opposite effects” and the “melanin production after hormone withdrawal” value was “quickly returned to their baseline level of melanin production”.

“MSH: the endogenous equivalent of afamelanotide (Ac-SYSMEHFRWGKPV-NH2; ends and bridges not checked; UniProt P01189 138-150, looked up)”: in experiment [6], the differentiation result was “increase” and the pigment production entry is listed as “increase”.
